Measurements reported in ChEMBL document CHEMBL3526052 (Drug Metab Dispos, 2013).

Columns and labels:
[1] = Elimination half life in CD-1 mouse at 60 mg/kg, iv administered as bolus dose in presence of ENT1 inhibitor NBMPR-P; format: ADME, organism-based; design: dose 60 mg/kg, route intravenous; conditions: in vivo, read-out: beta t1/2 (converted)
[2] = Tmax in CD-1 mouse brain at 60 mg/kg, iv administered as bolus dose in presence of ENT1 inhibitor NBMPR-P; format: ADME, organism-based; design: dose 60 mg/kg, route intravenous
[3] = Apparent volume of distribution at steady state in CD-1 mouse at 60 mg/kg, iv administered as bolus dose in presence of ENT1 inhibitor NBMPR-P; format: ADME, organism-based; design: dose 60 mg/kg, route intravenous; conditions: in vivo, read-out: Vdss(app)
[4] = AUC (0 to infinity) in CD-1 mouse at 60 mg/kg, iv administered as bolus dose in absence of ENT1 inhibitor NBMPR-P; format: ADME, organism-based; design: time infinity, dose 60 mg/kg, route intravenous; conditions: plasma
[5] = AUC (0 to infinity) in CD-1 mouse at 60 mg/kg, iv administered as bolus dose in presence of ENT1 inhibitor NBMPR-P; format: ADME, organism-based; design: time infinity, dose 60 mg/kg, route intravenous; conditions: plasma
[6] = Tmax in CD-1 mouse brain at 60 mg/kg, iv administered as bolus dose in absence of ENT1 inhibitor NBMPR-P; format: ADME, organism-based; design: dose 60 mg/kg, route intravenous
Brain [7] = assay: AUC (0 to 4 hrs) in CD-1 mouse brain at 60 mg/kg, iv administered as bolus dose in absence of ENT1 inhibitor NBMPR-P; format: ADME, organism-based; design: time < 4 hr, dose 60 mg/kg, route intravenous; conditions: in vivo
[8] = Cmax in CD-1 mouse brain at 60 mg/kg, iv administered as bolus dose in presence of ENT1 inhibitor NBMPR-P; format: ADME, organism-based; design: dose 60 mg/kg, route intravenous
[9] = Apparent volume of distribution at steady state in CD-1 mouse at 60 mg/kg, iv administered as bolus dose in absence of ENT1 inhibitor NBMPR-P; format: ADME, organism-based; design: dose 60 mg/kg, route intravenous; conditions: in vivo, read-out: Vdss(app)
Brain [10] = assay: AUC (0 to 4 hrs) in CD-1 mouse brain at 60 mg/kg, iv administered as bolus dose in presence of ENT1 inhibitor NBMPR-P; format: ADME, organism-based; design: time < 4 hr, dose 60 mg/kg, route intravenous; conditions: in vivo
[11] = Elimination half life in CD-1 mouse at 60 mg/kg, iv administered as bolus dose in absence of ENT1 inhibitor NBMPR-P; format: ADME, organism-based; design: dose 60 mg/kg, route intravenous; conditions: in vivo, read-out: beta t1/2 (converted)
[12] = Cmax in CD-1 mouse brain at 60 mg/kg, iv administered as bolus dose in absence of ENT1 inhibitor NBMPR-P; format: ADME, organism-based; design: dose 60 mg/kg, route intravenous
[13] = target: T1, Equilibrative nucleoside transporter 1 (Homo sapiens, UniProt Q99808); assay: Binding affinity to recombinant human ENT1 expressed in Saccharomyces cerevisiae assessed as inhibition of [3H]-uridine transport after 15 mins by scintillation counting analysis; format: ADME
T1 sequence (Q99808 whole entry): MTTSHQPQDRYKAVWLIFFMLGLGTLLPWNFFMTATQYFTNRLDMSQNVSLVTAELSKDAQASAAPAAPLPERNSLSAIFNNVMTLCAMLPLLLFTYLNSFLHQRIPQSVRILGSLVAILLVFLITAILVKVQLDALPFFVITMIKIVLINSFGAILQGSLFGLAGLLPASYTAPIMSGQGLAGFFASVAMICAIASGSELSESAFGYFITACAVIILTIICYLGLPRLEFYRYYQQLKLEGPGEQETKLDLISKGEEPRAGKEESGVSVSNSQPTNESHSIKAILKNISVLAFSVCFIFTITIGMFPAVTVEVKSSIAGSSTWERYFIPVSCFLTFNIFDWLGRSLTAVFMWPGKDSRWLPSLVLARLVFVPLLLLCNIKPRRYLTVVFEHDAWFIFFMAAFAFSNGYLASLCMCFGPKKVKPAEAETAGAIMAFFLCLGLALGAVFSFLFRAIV

[14] = target: T2, Solute carrier family 28 member 3 (Homo sapiens, UniProt Q9HAS3); assay: Binding affinity to recombinant human CNT3 expressed in Saccharomyces cerevisiae assessed as inhibition of [3H]-uridine transport after 5 mins by scintillation counting analysis; format: ADME
T2 sequence (Q9HAS3 whole entry): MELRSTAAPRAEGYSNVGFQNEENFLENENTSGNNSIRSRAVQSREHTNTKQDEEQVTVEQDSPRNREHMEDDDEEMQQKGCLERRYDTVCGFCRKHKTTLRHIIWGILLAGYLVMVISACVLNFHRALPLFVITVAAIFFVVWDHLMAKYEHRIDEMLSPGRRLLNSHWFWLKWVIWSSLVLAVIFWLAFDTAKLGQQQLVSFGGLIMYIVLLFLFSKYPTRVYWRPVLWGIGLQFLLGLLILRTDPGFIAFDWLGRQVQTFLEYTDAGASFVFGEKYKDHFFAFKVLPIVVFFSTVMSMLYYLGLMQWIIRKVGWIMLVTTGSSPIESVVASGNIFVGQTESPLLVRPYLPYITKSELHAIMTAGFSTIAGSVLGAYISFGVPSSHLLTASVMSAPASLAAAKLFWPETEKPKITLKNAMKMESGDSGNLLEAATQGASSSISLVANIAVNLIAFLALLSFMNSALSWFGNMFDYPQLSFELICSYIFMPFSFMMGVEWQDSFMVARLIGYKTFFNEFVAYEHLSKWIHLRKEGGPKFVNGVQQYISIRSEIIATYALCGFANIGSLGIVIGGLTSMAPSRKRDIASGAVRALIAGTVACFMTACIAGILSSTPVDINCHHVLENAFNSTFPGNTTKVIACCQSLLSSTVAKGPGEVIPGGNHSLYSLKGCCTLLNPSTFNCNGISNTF

[15] = target: T3, Sodium/nucleoside cotransporter 2 (Homo sapiens, UniProt O43868); assay: Binding affinity to recombinant human CNT2 expressed in Saccharomyces cerevisiae assessed as inhibition of [3H]-uridine transport after 15 mins by scintillation counting analysis; format: ADME
T3 sequence (O43868 whole entry): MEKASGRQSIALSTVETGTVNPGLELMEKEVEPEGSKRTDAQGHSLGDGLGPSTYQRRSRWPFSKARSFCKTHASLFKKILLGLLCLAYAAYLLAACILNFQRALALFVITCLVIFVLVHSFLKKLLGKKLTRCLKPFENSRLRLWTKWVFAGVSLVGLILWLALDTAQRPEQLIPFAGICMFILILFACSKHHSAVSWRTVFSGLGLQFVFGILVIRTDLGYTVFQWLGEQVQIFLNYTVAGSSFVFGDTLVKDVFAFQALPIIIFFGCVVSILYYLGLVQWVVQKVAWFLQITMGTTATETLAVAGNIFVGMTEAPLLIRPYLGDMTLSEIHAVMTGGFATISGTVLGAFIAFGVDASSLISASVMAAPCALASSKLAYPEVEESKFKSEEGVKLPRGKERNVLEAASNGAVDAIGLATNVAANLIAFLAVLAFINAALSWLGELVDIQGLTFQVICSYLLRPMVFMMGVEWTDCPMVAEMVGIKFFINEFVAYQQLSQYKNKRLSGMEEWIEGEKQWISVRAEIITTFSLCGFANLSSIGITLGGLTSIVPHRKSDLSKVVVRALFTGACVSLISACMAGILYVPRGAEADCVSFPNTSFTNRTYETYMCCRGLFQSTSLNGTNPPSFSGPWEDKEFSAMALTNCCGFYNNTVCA

[16] = target: T4, Equilibrative nucleoside transporter 2 (Homo sapiens, UniProt Q14542); assay: Binding affinity to recombinant human ENT2 expressed in Saccharomyces cerevisiae assessed as inhibition of [3H]-uridine transport after 15 mins by scintillation counting analysis; format: ADME
T4 sequence (Q14542 whole entry): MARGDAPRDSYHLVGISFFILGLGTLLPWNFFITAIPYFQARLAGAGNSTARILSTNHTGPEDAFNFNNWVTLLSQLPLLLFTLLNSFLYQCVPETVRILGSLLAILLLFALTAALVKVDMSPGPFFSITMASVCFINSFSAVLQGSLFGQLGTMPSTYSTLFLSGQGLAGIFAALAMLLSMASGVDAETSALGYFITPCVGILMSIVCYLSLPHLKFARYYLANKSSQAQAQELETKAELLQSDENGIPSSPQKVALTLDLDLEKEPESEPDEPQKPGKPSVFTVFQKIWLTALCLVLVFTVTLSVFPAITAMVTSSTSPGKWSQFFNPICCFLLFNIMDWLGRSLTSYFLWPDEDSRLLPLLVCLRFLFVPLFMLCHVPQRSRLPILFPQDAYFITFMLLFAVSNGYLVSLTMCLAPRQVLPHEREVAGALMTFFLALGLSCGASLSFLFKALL

[17] = target: T5, Sodium/nucleoside cotransporter 1 (Homo sapiens, UniProt O00337); assay: Binding affinity to recombinant human CNT1 expressed in Saccharomyces cerevisiae assessed as inhibition of [3H]-uridine transport after 15 mins by scintillation counting analysis; format: ADME
T5 sequence (O00337 whole entry): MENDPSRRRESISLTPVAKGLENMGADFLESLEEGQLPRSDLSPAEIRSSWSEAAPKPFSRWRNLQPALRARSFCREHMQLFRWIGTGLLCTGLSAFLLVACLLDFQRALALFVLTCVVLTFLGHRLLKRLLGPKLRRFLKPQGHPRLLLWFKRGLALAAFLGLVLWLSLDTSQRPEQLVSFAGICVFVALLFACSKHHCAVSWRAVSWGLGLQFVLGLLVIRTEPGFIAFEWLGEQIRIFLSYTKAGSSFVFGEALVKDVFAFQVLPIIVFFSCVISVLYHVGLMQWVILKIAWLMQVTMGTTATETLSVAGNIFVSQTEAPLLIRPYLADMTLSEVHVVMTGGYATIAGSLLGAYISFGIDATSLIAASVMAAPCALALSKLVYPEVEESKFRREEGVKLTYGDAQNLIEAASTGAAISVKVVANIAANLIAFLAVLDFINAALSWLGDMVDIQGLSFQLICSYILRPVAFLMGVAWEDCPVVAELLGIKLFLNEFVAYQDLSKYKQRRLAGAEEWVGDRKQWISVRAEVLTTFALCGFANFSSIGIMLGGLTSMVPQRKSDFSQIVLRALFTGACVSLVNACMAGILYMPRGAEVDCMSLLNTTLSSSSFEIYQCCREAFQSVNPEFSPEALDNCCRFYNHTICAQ

Nc1nc(F)nc2c1ncn2[C@@H]1O[C@H](CO)[C@@H](O)[C@@H]1O [FLUDARABINE]
half-life [1]: 2.2 h
Tmax [2]: 1.63 h
Vd [3]: 2.6 L/kg
AUC(0-inf) [4]: 39600 ng·h/mL
AUC(0-inf) [5]: 65700 ng·h/mL
Tmax [6]: 0.88 h
AUC (Brain [7]): 11300 ng·h/g
Cmax [8]: 801 ng/g
Vd [9]: 1.6 L/kg
AUC (Brain [10]): 2490 ng·h/g
half-life [11]: 1.7 h
Cmax [12]: 6050 ng/g

O=c1ccn([C@@H]2O[C@H](CO)[C@@H](O)[C@H]2O)c(=O)[nH]1 [URIDINE]
IC50 [13]: 52 µM
Ki ([13]; read-out: Ki(app)): 51 µM
IC50 [14]: 5.4 µM
Ki ([14]; read-out: Ki(app)): 3.4 µM
IC50 [15]: 32 µM
Ki ([15]; read-out: Ki(app)): 31 µM
IC50 [16]: 234 µM
Ki ([16]; read-out: Ki(app)): 242 µM
IC50 [17]: 5.8 µM
Ki ([17]; read-out: Ki(app)): 5.2 µM
